Where two headings read alike, the source gives them in different places.
Test: Tigecycline plasma PK and % F after intraduodenal (ID) injection in anesthetized rats
Type: in vivo, Sprague-Dawley Rats
Details: female, Sprague-Dawley, rat, plasma
Procedure: Animals weighed approximately 250 g at the time of testing. Rats were fasted overnight (with water available), prior to dosing.
Intravenous (IV) doses were administered as a bolus injection into the left carotid […] at a dose volume of 1.6 mL/kg. Intraduodenal doses were administered as bolus injections into the duodenum at a dose volume of 1.2 mL/kg.
An additional study was conducted exploring the effect of formulation pH at constant CA and LLC concentrations (RA867).
Female rats were maintained in groups of 3 per polycarbonate (or equivalent) shoebox cage with fresh wood chip bedding at 20-22° C. under a 12 hour on/off light:dark cycle. […] After the rats went limp they were injected intraperitoneally (IP) with 0.1 mL ketamine/xylazine. The anesthetic state was maintained by IP injection of ketamine/xylazine on an as needed basis. Animal weights were determined post-anesthesia induction.
An indwelling catheter for blood sampling was inserted into the right carotid artery by exposing the trachea with Mayo scissors, clamping the bottom of the […] and tying off the top with surgical suture. The area between was nicked with small sharp scissors and Intramedic polyethylene tubing was inserted into the nicked area. The artery with the tubing was sealed with suture to prevent leakage. A 23-gauge Intramedic Luer Stub Adapter was inserted into the cannula and attached to a 3 way valve which was connected to a 3 cc syringe filled with 0.9% normal saline and a 1 cc syringe filled with 5 U/mL sodium heparin for blood sampling.
An intraduodenal injection was utilized to mimic oral delivery of an enterically coated capsule or tablet formulation. […] Mayo scissors were used to expose the duodenum and the site of administration was identified by measuring 5 cm from the junction of the stomach and the duodenum towards the jejunum. The measured site was identified by inserting a small piece of surgical suture underneath the site for injection. After the formulation was injected, the abdominal cavity was closed with surgical clips.
Blood samples were collected in tubes containing 20 μL 180 mM EDTA. The tubes were maintained on ice and then centrifuged at approximately 3000 rpm at 4° C. for 5 minutes. Plasma was harvested immediately after centrifugation of the samples and stored at −20° C. pending analysis.
Minocycline (VWR international) was used as an internal standard. Sample processing/clean-up of plasma samples was carried out offline by protein precipitation with acidified acetonitrile.
The HPLC system consisted of Shimadzu SIL-HTc HPLC system equipped with dual Shimadzu LC-10ADvp isopumps, a Shimadzu CTO-10ASvp column temperature controller and a Shimadzu SPD-10Avp variable wavelength detector. […] Mobile phase A consisted of 23 mM phosphate buffer pH 2.5 with 6 mM 1-octanesulfonic acid, while mobile phase B consisting of pure acetonitrile. […] The mobile phase flow rate was 1.2 mL/min. Detection was performed using the SPD-10Avp variable wavelength detector set at 350 nm, with a sensitivity of 0.001 aufs.
The samples were then centrifuged under refrigeration at 13 k rpm for 30 minutes. The supernatant was taken and the liquid was removed to dryness in a turbovap. The samples were then reconstituted in 55 μL 0.1M phosphate buffer, pH 3.8. Samples were maintained at 10° C. while on the autoinjector during sequence. The injection volume was 50 μL. The unknown concentration in rat plasma samples was determined by interpolation of the peak area ratios of analyte:internal standard versus the ratio of their nominal concentrations into the regression line obtained from calibration standards spiked in pooled rat plasma. No regression weighting was used for the calculations. […] The calibration curve covered the range of 0.05 μg/mL to 5.0 μg/mL.

[1] = […], RA869, ID, 400 mM CA/26 mM LLC
[2] = other: intraduodenal bolus injection, 4.8 mg/kg, ID, PBS, 4.8 mg/kg (RA851)
[3] = other: intraduodenal bolus injection, 4.8 mg/kg, pH 3.5, ID, 100 mM CA (pH 3.5), 26 mM LLC, 4.8 mg/kg (RA851)
[4] = other: intraduodenal bolus injection, 4.8 mg/kg, pH 3.5, ID, 400 mM CA (pH 3.5), 26 mM LLC, 4.8 mg/kg (RA851), parent Tigecycline peak only
[5] = other: intraduodenal bolus injection, 9 mg/kg, ID, PBS, 9.0 mg/kg (RA853), animal RA853-4 only
[6] = other: intraduodenal bolus injection, 9 mg/kg, pH 3.5, ID, 100 mM CA (pH 3.5), 26 mM LLC, 9.0 mg/kg (RA853)
[7] = other: intraduodenal bolus injection, 9 mg/kg, pH 3.5, ID, 400 mM CA (pH 3.5), 26 mM LLC, 9.0 mg/kg (RA853), parent Tigecycline peak only

With CN(C)c1cc(NC(=O)CNC(C)(C)C)c(O)c2c1C[C@H]1C[C@H]3[C@H](N(C)C)C(O)=C(C(N)=O)C(=O)[C@@]3(O)C(O)=C1C2=O [Tigecycline] the Cmax ([…], RA869, ID, 26 mM LLC only, […], read-out: Cmax, mean) was 105 ng/mL, the AUC(0-t) [1] was 222 ng·h/mL and the Tmax [1] was 15 min. The bioavailability ([…], RA869, ID, 400 mM CA/26 mM LLC, […], read-out: % F, mean) was 21.6%, the Cmax ([…], RA869, ID, 400 mM CA/26 mM LLC, […], read-out: Cmax, mean) was 246 ng/mL and the concentration at 0 min [2] was 0 ng/mL. The concentration at 10 min [2] was 31 ng/mL, the concentration at 20 min [2] was 31 ng/mL and the concentration at 30 min [2] was 33 ng/mL. For the same compound, the concentration at 60 min [2] was 0 ng/mL, the concentration at 120 min [2] was 53 ng/mL and the concentration at 240 min [2] was 66 ng/mL. The concentration at 0 min [3] was 0 ng/mL, the concentration at 10 min [3] was 710 ng/mL and the concentration at 20 min [3] was 672 ng/mL. For the same compound, the concentration at 30 min [3] was 601 ng/mL, the concentration at 60 min [3] was 398 ng/mL and the concentration at 120 min [3] was 306 ng/mL. It also gave a concentration at 0 min [4] of 0 ng/mL, a concentration at 10 min [4] of 920 ng/mL and a concentration at 20 min [4] of 788 ng/mL. For the same compound, the concentration at 30 min [4] was 618 ng/mL, the concentration at 60 min [4] was 455 ng/mL and the concentration at 120 min [4] was 345 ng/mL. The concentration at 240 min [4] was 386 ng/mL, the concentration at 0 min [5] was 0 ng/mL and the concentration at 10 min [5] was 0 ng/mL. For the same compound, the concentration at 20 min [5] was 0 ng/mL, the concentration at 30 min [5] was 391 ng/mL and the concentration at 60 min [5] was 440 ng/mL. For the same compound, the concentration at 120 min [5] was 129 ng/mL, the concentration at 0 min [6] was 0 ng/mL and the concentration at 10 min [6] was 1770 ng/mL. For the same compound, the concentration at 20 min [6] was 1980 ng/mL, the concentration at 30 min [6] was 1350 ng/mL and the concentration at 60 min [6] was 608 ng/mL. It also gave a concentration at 120 min [6] of 273 ng/mL, a concentration at 0 min [7] of 0 ng/mL and a concentration at 10 min [7] of 2490 ng/mL. The concentration at 20 min [7] was 2160 ng/mL, the concentration at 30 min [7] was 1760 ng/mL and the concentration at 60 min [7] was 1060 ng/mL. It also gave a concentration at 120 min [7] of 683 ng/mL, a bioavailability (other: intraduodenal bolus injection, pH 3.5, ID, 400 mM CA pH 3.5 and 26 mM LLC (RA851, RA853), read-out: absolute % F) of about 22% and a bioavailability (other: intraduodenal injection, 4.8 mg/kg, ID, PBS, 4.8 mg/kg (RA851), relative to 0.64 mg/kg IV, read-out: % F, Mean) of 1.6%. For the same compound, the bioavailability (other: intraduodenal injection, 4.8 mg/kg, pH 3.5, ID, 100 mM CA (pH 3.5), 26 mM LLC, 4.8 mg/kg (RA851), relative to 0.64 mg/kg IV, read-out: % F, Mean) was 10.9%, the bioavailability (other: intraduodenal injection, 9 mg/kg, ID, PBS, 9.0 mg/kg (RA853), without animal RA853-6, relative to 12 mg/kg IV, read-out: % F, Mean) was 2.8% and the Cmax (other: intraduodenal injection, 9 mg/kg, ID, PBS, 9.0 mg/kg (RA853), suspected injection site leakage, read-out: Cmax, one animal not included in the mean) was 1110 ng/mL. The bioavailability (other: intraduodenal injection, 9 mg/kg, pH 3.5, ID, 100 mM CA (pH 3.5), 26 mM LLC, 9.0 mg/kg (RA853), relative to 12 mg/kg IV, read-out: % F, Mean) was 11.4%, the bioavailability (other: intraduodenal injection, 9 mg/kg, pH 3.5, ID, 400 mM CA (pH 3.5), 26 mM LLC, 9.0 mg/kg (RA853), parent Tigecycline peak only, relative to 12 mg/kg IV, read-out: % F, Mean) was 21.8% and the bioavailability (other: intraduodenal injection, […], RA869, ID, 26 mM LLC only, […], read-out: % F, mean) was 9%. For the same compound, the bioavailability (other: intraduodenal injection, […], RA869, ID, 400 mM CA/26 mM LLC, […], read-out: % F, mean) was about 22% and the bioavailability (other: intraduodenal injection, pH 3.5, ID, 100 mM CA pH 3.5 and 26 mM LLC (RA851, RA853), read-out: absolute % F) was about 11%.

Source: patent US9526785B2, “Pharmaceuticals for oral delivery” (Enteris BioPharma, Inc., priority 2013, dated 2016)
